Measurements: patent US20230027985A1, “SUBSTITUTED HYDANTOINAMIDES AS ADAMTS7 ANTAGONISTS” (Bayer Aktiengesellschaft, priority 2019, published 2023)
pIC50: −log10 of the molar value.

Legend:
[1] = target: T1, Purified recombinant ADAMTS-7 (rat prodomain/human catalytic domain, SEQ ID No. 01 or 02) (Homo sapiens, UniProt Q9UKP4); test: Assay for ADAMTS-7 enzymatic activity (FRET substrate cleavage); assay type: biochemical; conditions: FRET substrate SEQ ID No. 11, 120 min at 32° C.; read-out: ADAMTS7-IC50
T1 construct: rat ADAMTS-7 signal peptide + prodomain (rat 1-217, Q1EHB3) (N); 2xStrep tag (C); 6xHis tag (C); made in house; host or cells: Expi293 cells
T1 sequence (Q9UKP4 237-537): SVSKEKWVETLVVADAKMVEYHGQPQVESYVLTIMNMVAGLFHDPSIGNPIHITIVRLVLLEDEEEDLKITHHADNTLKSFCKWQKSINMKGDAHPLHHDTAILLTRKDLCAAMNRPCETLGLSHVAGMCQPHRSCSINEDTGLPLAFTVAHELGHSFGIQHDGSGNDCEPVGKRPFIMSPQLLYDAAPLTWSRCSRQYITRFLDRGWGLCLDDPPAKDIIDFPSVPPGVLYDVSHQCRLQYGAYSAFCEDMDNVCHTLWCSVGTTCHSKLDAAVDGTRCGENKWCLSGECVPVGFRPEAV
Experimental: Purified recombinant ADAMTS-7 (as of SEQ ID No. 01 or SEQ ID No. 02) was diluted in reaction buffer (20 mM HEPES pH 8.0, 150 mM NaCl, 5 mM CaCl2, 0.004% Brij, 10 μM ZnCl2) fora concentration of approximately 20 nM. 25 μl of the solution were transferred into each well of a 384-well white microtiter plate (Greiner Bio-One 781075) and 1 μl test compound solution (modulator/inhibitor dissolved in DMSO, at the corresponding concentration) or pure DMSO as a control were added per well. […] Amino acids […] are derived from Thrombospondin-1 sequence (275-289). An additional carboxyl glutamic acid was added after the QXL520 quencher to increase substrate solubility. The microtiter plate was incubated for 120 min at the temperature of 32° C. The increase of fluorescence intensity was measured in appropriate fluorescence plate reader (e.g. TECAN Ultra) using excitation wavelength of 485 nm and emission wavelength of 520 nm. IC50 values were calculated from percentage of inhibition of ADAMTS-7 activity as a function of test compound concentration.

ADAMTS4 = target: T2, ADAMTS4 (Homo sapiens, UniProt O75173); test: Selectivity assay for ADAMTS-7 modulators (FRET), ADAMTS4; assay type: biochemical; conditions: 50 nM enzyme (R&D 4307-AD), 1 μM Dabcyl/Edans FRET substrate, 120 min at 32° C.
T2 construct: purchased R&D 4307-AD
T2 sequence (O75173 213-685 limits assumed): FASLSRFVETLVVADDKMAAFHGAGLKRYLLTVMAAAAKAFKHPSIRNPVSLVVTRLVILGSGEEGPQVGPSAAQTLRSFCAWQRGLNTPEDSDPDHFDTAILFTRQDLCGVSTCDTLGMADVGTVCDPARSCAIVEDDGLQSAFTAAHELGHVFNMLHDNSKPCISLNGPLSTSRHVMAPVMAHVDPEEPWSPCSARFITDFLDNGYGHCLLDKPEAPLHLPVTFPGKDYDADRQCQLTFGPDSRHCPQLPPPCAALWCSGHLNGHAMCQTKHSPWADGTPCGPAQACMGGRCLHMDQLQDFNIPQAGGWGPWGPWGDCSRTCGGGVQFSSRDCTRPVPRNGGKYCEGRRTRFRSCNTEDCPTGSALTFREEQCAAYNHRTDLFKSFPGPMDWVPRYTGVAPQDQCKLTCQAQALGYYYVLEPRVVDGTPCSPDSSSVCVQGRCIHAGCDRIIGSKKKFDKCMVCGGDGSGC
Experimental: The respective enzyme (see table 2 below) was diluted in reaction buffer (50 mM Tris, 2.5 μM ZnCl2, 0.05% BSA, 0.001% Brij, pH 7.5 for ADAM17; 50 mM Tris 7.5, 150 mM NaCl, 10 mM CaCl2, 0.05% Brij for all other enzymes) to the respective concentration and 25 μl were transferred into each well of a 384-well white microtiter plate (Greiner Bio One 781075). 1 μl test compound solution (dissolved in DMSO, at the corresponding concentration) or pure DMSO as a control was added per well. The enzymatic reaction was initiated by addition of 25 μl of the respective concentration of the respective FRET substrate (see table 2 below) in reaction buffer. The microtiter plate was incubated for 120 min at the temperature of 32° C. The increase of fluorescence intensity was measured in appropriate fluorescence plate reader (e.g. TECAN Ultra) using the respective wavelengths for excitation and emission. IC50 values were calculated from percentage of inhibition of enzyme activity as a function of test compound concentration.

## Cn1nccc1C1(CNC(=O)c2cnn(-c3ccc(F)cc3)n2)NC(=O)NC1=O (racemic) [Example 127, rac-2-(4-fluorophenyl)-N-{[4-(1-methyl-1H-pyrazol-5-yl)-2,5-dioxoimidazolidin-4-yl]methyl}-2H-1,2,3-triazole-4-carboxamide]
[1]
  pIC50: 8.00
ADAMTS4
  pIC50: 5.62

## O=C1NC(=O)C(CNC(=O)c2cnn(-c3ccc(F)cc3)n2)(c2ccnn2C(F)F)N1 (racemic) [Example 128, rac-N-({4-[1-(difluoromethyl)-1H-pyrazol-5-yl]-2,5-dioxoimidazolidin-4-yl}methyl)-2-(4-fluorophenyl)-2H-1,2,3-triazole-4-carboxamide]
[1]
  pIC50: 7.54
ADAMTS4
  pIC50: 5.62

## CCn1nccc1C1(CNC(=O)c2cnn(-c3ccc(F)cc3)n2)NC(=O)NC1=O (racemic) [Example 130, rac-N-{[4-(1-ethyl-1H-pyrazol-5-yl)-2,5-dioxoimidazolidin-4-yl]methyl}-2-(4-fluorophenyl)-2H-1,2,3-triazole-4-carboxamide]
[1]
  pIC50: 7.85
ADAMTS4
  pIC50: 5.55

## Cc1ncsc1C1(CNC(=O)c2cnn(-c3ccc(F)cc3)n2)NC(=O)NC1=O (racemic) [Example 131, rac-2-(4-fluorophenyl)-N-{[4-(4-methyl-1,3-thiazol-5-yl)-2,5-dioxoimidazolidin-4-yl]methyl}-2H-1,2,3-triazole-4-carboxamide]
[1]
  pIC50: 7.43
ADAMTS4
  pIC50: 5.60

## O=C1NC(=O)C(CNC(=O)c2cnn(-c3ccc(F)cc3)n2)(c2ccnn2CC(F)(F)F)N1 (racemic) [Example 133, rac-N-({2,5-dioxo-4-[1-(2,2,2-trifluoroethyl)-1H-pyrazol-5-yl]imidazolidin-4-yl}methyl)-2-(4-fluorophenyl)-2H-1,2,3-triazole-4-carboxamide]
[1]
  pIC50: 7.30
ADAMTS4
  pIC50: 5.49

## O=C1NC(=O)C(CNC(=O)c2cnn(-c3ccc(F)cc3)n2)(c2ncsc2C(F)(F)F)N1 (racemic) [Example 135, rac-N-({2,5-dioxo-4-[5-(trifluoromethyl)-1,3-thiazol-4-yl]imidazolidin-4-yl}methyl)-2-(4-fluorophenyl)-2H-1,2,3-triazole-4-carboxamide]
[1]
  pIC50: 7.32
ADAMTS4
  pIC50: 5.18

## O=C1NC(=O)C(CNC(=O)c2cnn(-c3ccc(F)cc3)n2)(c2ccccc2)N1 (racemic) [Example 139, rac-N-[(2,5-dioxo-4-phenylimidazolidin-4-yl)methyl]-2-(4-fluorophenyl)-2H-1,2,3-triazole-4-carboxamide]
[1]
  pIC50: 7.16
ADAMTS4
  pIC50: < 4.30

## Cn1ccnc1C1(CNC(=O)c2cnn(-c3ccccc3)n2)NC(=O)NC1=O (racemic) [Example 140, rac-N-{[4-(1-methyl-1H-imidazol-2-yl)-2,5-dioxoimidazolidin-4-yl]methyl}-2-phenyl-2H-1,2,3-triazole-4-carboxamide]
[1]
  pIC50: 8.40
ADAMTS4
  pIC50: 6.44

## Cn1ccnc1C1(CNC(=O)c2cnn(-c3ccc(F)cc3)n2)NC(=O)NC1=O (racemic) [Example 141, rac-2-(4-fluorophenyl)-N-{[4-(1-methyl-1H-imidazol-2-yl)-2,5-dioxoimidazolidin-4-yl]methyl}-2H-1,2,3-triazole-4-carboxamide]
[1]
  pIC50: 8.40
ADAMTS4
  pIC50: 6.49

## Cn1ccnc1C1(CNC(=O)c2cnn(-c3cc(F)c(F)c(F)c3)n2)NC(=O)NC1=O (racemic) [Example 143, rac-N-{[4-(1-methyl-1H-imidazol-2-yl)-2,5-dioxoimidazolidin-4-yl]methyl}-2-(3,4,5-trifluorophenyl)-2H-1,2,3-triazole-4-carboxamide]
[1]
  pIC50: 8.30
ADAMTS4
  pIC50: 6.70

## CC1(C)CC1C1(CNC(=O)c2cnn(-c3ccccc3)n2)NC(=O)NC1=O (racemic) [Example 150, ent-N-({4-[rac-2,2-dimethylcyclopropyl]-2,5-dioxoimidazolidin-4-yl}methyl)-2-phenyl-2H-1,2,3-triazole-4-carboxamide]
[1]
  pIC50: 7.42
ADAMTS4
  pIC50: 5.70

## CC1(CNC(=O)c2cnn(-c3ccc(F)cc3)n2)NC(=O)NC1=O (racemic) [Example 152, rac-2-(4-fluorophenyl)-N-[(4-methyl-2,5-dioxoimidazolidin-4-yl)methyl]-2H-1,2,3-triazole-4-carboxamide]
[1]
  pIC50: 6.25
ADAMTS4
  pIC50: 5.30

## O=C1NC(=O)C(CNC(=O)c2cnn(-c3ccc(F)cc3)n2)(C2(F)CC2)N1 (racemic) [Example 154, rac-N-{[4-(1-fluorocyclopropyl)-2,5-dioxoimidazolidin-4-yl]methyl}-2-(4-fluorophenyl)-2H-1,2,3-triazole-4-carboxamide]
[1]
  pIC50: 6.72
ADAMTS4
  pIC50: 5.10

## O=C1NC(=O)C(CNC(=O)c2cnn(-c3ccc(F)cc3)n2)(C2CC(F)(F)C2)N1 (racemic) [Example 155, rac-N-{[4-(3,3-difluorocyclobutyl)-2,5-dioxoimidazolidin-4-yl]methyl}-2-(4-fluorophenyl)-2H-1,2,3-triazole-4-carboxamide]
[1]
  pIC50: 6.66
ADAMTS4
  pIC50: < 4.30

## O=C1NC(=O)C(CNC(=O)c2cnn(-c3ccc(F)cc3)n2)(c2ncccc2C(F)(F)F)N1 (racemic) [Example 156, rac-N-({2,5-dioxo-4-[3-(trifluoromethyl)pyridin-2-yl]imidazolidin-4-yl}methyl)-2-(4-fluorophenyl)-2H-1,2,3-triazole-4-carboxamide]
[1]
  pIC50: 7.23
ADAMTS4
  pIC50: 4.82

## Cc1nc(C2(CNC(=O)c3cnn(-c4ccc(F)cc4)n3)NC(=O)NC2=O)c(C)s1 (racemic) [Example 158, rac-N-{[4-(2,5-dimethyl-1,3-thiazol-4-yl)-2,5-dioxoimidazolidin-4-yl]methyl}-2-(4-fluorophenyl)-2H-1,2,3-triazole-4-carboxamide]
[1]
  pIC50: 7.00
ADAMTS4
  pIC50: 5.55

## O=C1NC(=O)C(CNC(=O)c2cnn(-c3ccc(F)cc3)n2)(C2(Cl)CC2)N1 (racemic) [Example 159, rac-N-{[4-(1-chlorocyclopropyl)-2,5-dioxoimidazolidin-4-yl]methyl}-2-(4-fluorophenyl)-2H-1,2,3-triazole-4-carboxamide]
[1]
  pIC50: 7.13
ADAMTS4
  pIC50: 5.43

## CCC1(CNC(=O)c2cnn(-c3ccc(F)cc3)n2)NC(=O)NC1=O (racemic) [Example 162, rac-N-[(4-ethyl-2,5-dioxoimidazolidin-4-yl)methyl]-2-(4-fluorophenyl)-2H-1,2,3-triazole-4-carboxamide]
[1]
  pIC50: 6.70
ADAMTS4
  pIC50: 4.89

## O=C1NC(=O)C(CNC(=O)c2cnn(-c3ccc(F)cc3)n2)(c2ccccn2)N1 (single isomer, unassigned) [Example 97, ent-N-{[2,5-dioxo-4-(pyridin-2-yl)imidazolidin-4-yl]methyl}-2-(4-fluorophenyl)-2H-1,2,3-triazole-4-carboxamide]
[1]
  pIC50: 8.00
ADAMTS4
  pIC50: 5.72

## CCC(C)C1(CNC(=O)c2cnn(-c3ccc(F)cc3)n2)NC(=O)NC1=O (single isomer, unassigned) [Example 104, ent-N-[(4-sec-butyl-2,5-dioxoimidazolidin-4-yl)methyl]-2-(4-fluorophenyl)-2H-1,2,3-triazole-4-carboxamide]
[1]
  pIC50: 8.00
ADAMTS4
  pIC50: 5.66
